Read-outs that look alike come from different tables or passages of the source.
Columns and labels:
cerebral ischemia = conditions: oral administration to experimental animals; cited from earlier work
[1] = format: physicochemical; conditions: for dissolution upon visual inspection: 2 g in 75 ml distilled water, stirred mechanically ~5 min
[2] = pH measurement of 2 g of substance in 75 ml H2O
cognitive function = conditions: cited from earlier work
[3] = tested on: age-associated memory impairment; conditions: humans; cited from earlier work

CN(CC(=O)O)C(=N)N [Creatine, N-methyl-N-guanyl Glycine]
ischemic brain infarction (cerebral ischemia): remarkable reduction

CN(CC(=O)O)C(=N)N.O [creatine monohydrate]
dissolution upon visual inspection ([1]; Experiment 1): did not dissolve very well | dissolution after lowering pH by adding pyroglutamic acid ([1]; Experiment 1, creatine monohydrate 2 g in 75 ml water, some pyroglutamic acid added): dissolved | dissolution after 30 min of stirring ([1]; Experiment 2, 2 g in 75 ml distilled H2O, 30 min stirring): still a considerable amount of solids that did not dissolve | pH of 2 g in 75 ml H2O [2]: ~7.00

O=C1CC[C@@H](C(=O)O)N1 [pyroglutamic acid, L-pyroglutamic acid]
pH of 2 g in 75 ml H2O [2]: ~2.00 | cognitive function in rats (cognitive function): improve | age-associated memory impairment [3]: improves

(2-(1-methylguanidino)acetyl)oxonium (S)-5-oxopyrrolidine-2-carboxylate [creatine pyroglutamate]
dissolution upon visual inspection ([1]; Experiment 1): dissolved completely | time to complete dissolution of crystals ([1]; Experiment 2, 2 g in 75 ml distilled H2O, stirred): ≤ 5 min | pH of 2 g in 75 ml H2O ([2]; listed as product obtained in Experiment 2): 3.09 | pH of 2 g in 75 ml H2O ([2]; listed as unwashed product): ~3.00
